The results in this text go back to US8697641B2, “4-amino-4-oxobutanoyl peptide cyclic analogues, inhibitors of viral replication” (Achillion Pharmaceuticals, Inc., priority 2008, dated 2014).

The experiment relates to Hepatitis C replicon. In words: HCV replicon assay (NPT ELISA readout) in Huh-7 replicon-containing cells. Type of experiment: cell-based, Hepatitis C virus. Conditions: Hepatitis C virus, 72 h; HCV replicon in Huh-7 cells, three days incubation. Summed up:
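Replication is measured as neomycin phosphotransferase level by captured ELISA after three days of compound exposure (typically 10 to 0.03 μM, 6 concentrations) at 37 °C. Cells are Huh-7 harbouring an HCV replicon with neo gene and NS3-NS5B; interferon alpha is the positive control.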
On the technique in general: In antiviral work, replicon cells carry a viral genome segment that copies itself.

Bounds are passed on as bounds.

For orientation: EC50 means the concentration that produces a half-maximal response. Turning to `COc1ccc2c(O[C@@H]3C[C@H]4C(=O)N[C@]5(C(=O)NS(=O)(=O)C6CC6)C[C@H]5/C=C\CCCCC[C@H](CC(=O)NC(C)(C)C)C(=O)N4C3)cc(-c3ccccc3)nc2c1` [Compound 72, (2R,6R,13aS,14aR, 16aS,Z)-6-(2-(tert-butylamino)-2-oxoethyl)-N-(cyclopropylsulfonyl)-2-(7-methoxy-2-phenylquinolin-4-yloxy)-5,16-dioxo-1,2,3,5,6,7,8,9,10,11, 13a,14,14a,15,16,16a-hexadecahydrocyclopropa [e]pyrrolo[1,2-a][1,4] diazacyclopentadecine-14a-carboxamide], the EC50 was below 1 µM.
Compound `COc1ccc2c(O[C@@H]3C[C@H]4C(=O)N[C@]5(C(=O)NS(=O)(=O)C6CC6)C[C@H]5/C=C\CCCCC[C@H](CC(=O)NC5CCCC5)C(=O)N4C3)cc(-c3ccccc3)nc2c1` [Compound 73, (2R,6R,13aS,14aR, 16aS,Z)-6-(2-(cyclopentylamino)-2-oxoethyl)-N-(cyclopropylsulfonyl)-2-(7-methoxy-2-phenylquinolin-4-yloxy)-5,16-dioxo-1,2,3,5,6,7,8,9,10,11, 13a,14,14a,15,16,16a-hexadecahydrocyclopropa [e]pyrrolo[1,2-a][1,4] diazacyclopentadecine-14a-carboxamide] yielded an EC50 below 1 µM.
As for `COc1ccc2c(O[C@@H]3C[C@H]4C(=O)N[C@]5(C(=O)NS(=O)(=O)C6CC6)C[C@H]5/C=C\CCCCC[C@H](CC(=O)N5CCCCC5)C(=O)N4C3)cc(-c3ccccn3)nc2c1` [Compound 74, (2R,6R,13aS, 14aR,16aS,Z)-N-(cyclopropylsulfonyl)-2-(7-methoxy-2-(pyridin-2-yl)quinolin-4-yloxy)-5,16-dioxo-6-(2-oxo-2-(piperidin-1-yl)ethyl)-1,2,3,5,6,7,8,9,10,11, 13a,14,14a,15,16,16a-hexadecahydrocyclopropa [e]pyrrolo[1,2-a][1,4] diazacyclopentadecine-14a-carboxamide], the figure is below 1 µM.
The compound `COc1ccc2c(O[C@@H]3C[C@H]4C(=O)N[C@]5(C(=O)NS(=O)(=O)C6CC6)C[C@H]5/C=C\CCCCC[C@H](CC(=O)N5CCOC(C)C5)C(=O)N4C3)cc(-c3ccccc3)nc2c1` (stereo partly drawn) [Compound 75, (2R,6R,13aS, 14aR,16aS,Z)-N-(cyclopropylsulfonyl)-2-(7-methoxy-2-phenylquinolin-4-yloxy)-6-(2-(2-methylmorpholino)-2-oxoethyl)-5,16-dioxo-1,2,3,5,6,7,8,9,10,11, 13a,14,14a,15,16,16a-hexadecahydrocyclopropa [e]pyrrolo[1,2-a][1,4] diazacyclopentadecine-14a-carboxamide] yielded an EC50 below 1 µM.
As for `COc1ccc2c(O[C@@H]3C[C@H]4C(=O)N[C@]5(C(=O)NS(=O)(=O)C6CC6)C[C@H]5/C=C\CCCCC[C@H](CC(=O)N5CC(C)OC(C)C5)C(=O)N4C3)cc(-c3ccccc3)nc2c1` (stereo partly drawn) [Compound 76, (2R,6R,13aS, 14aR,16aS,Z)-N-(cyclopropylsulfonyl)-6-(2-(2,6-dimethylmorpholino)-2-oxoethyl)-2-(7-methoxy-2-phenylquinolin-4-yloxy)-5,16-dioxo-1,2,3,5,6,7,8,9,10,11, 13a,14,14a,15,16,16a-hexadecahydrocyclopropa [e]pyrrolo[1,2-a][1,4] diazacyclopentadecine-14a-carboxamide], the figure is below 1 µM; as for `COc1ccc2c(O[C@@H]3C[C@H]4C(=O)N[C@]5(C(=O)NS(=O)(=O)C6CC6)C[C@H]5/C=C\CCCCC[C@H](CC(=O)N5CC6CC5CO6)C(=O)N4C3)cc(-c3ccccc3)nc2c1` (stereo partly drawn) [Compound 77, (2R,6R,13aS,14aR, 16aS,Z)-6-(2-(2-oxa-5-azabicyclo[2.2.1]heptan-5-yl)-2-oxoethyl)-N-(cyclopropylsulfonyl)-2-(7-methoxy-2-phenylquinolin-4-yloxy)-5,16-dioxo-1,2,3,5,6,7,8,9,10,11, 13a,14,14a,15,16,16a-hexadecahydrocyclopropa [e]pyrrolo[1,2-a][1,4] diazacyclopentadecine-14a-carboxamide], below 1 µM; as for `COc1ccc2c(O[C@@H]3C[C@H]4C(=O)N[C@]5(C(=O)NS(=O)(=O)C6CC6)C[C@H]5/C=C\CCCCC[C@H](CC(=O)N5CCCC(C)C5)C(=O)N4C3)cc(-c3ccccc3)nc2c1` (stereo partly drawn) [Compound 78, (2R,6R,13aS, 14aR,16aS,Z)-N-(cyclopropylsulfonyl)-2-(7-methoxy-2-phenylquinolin-4-yloxy)-6-(2-(3-methylpiperidin-1-yl)-2-oxoethyl)-5,16-dioxo-1,2,3,5,6,7,8,9,10,11, 13a,14,14a,15,16,16a-hexadecahydrocyclopropa [e]pyrrolo[1,2-a][1,4] diazacyclopentadecine-14a-carboxamide], below 1 µM.
`O=C(N[C@@H]1C[C@H]2C(=O)N[C@]3(C(=O)NS(=O)(=O)C4CC4)C[C@H]3/C=C\CCCCC[C@H](CC(=O)N3CCC(F)(F)CC3)C(=O)N2C1)c1cc(-c2ccccc2)nc2ccccc12` [Compound 79, (2R,6R,13aS, 14aR,16aS,Z)-N-(cyclopropylsulfonyl)-6-(2-(4,4-difluoropiperidin-1-yl)-2-oxoethyl)-5,16-dioxo-2-(2-phenylquinoline-4-carboxamido)-1,2,3,5,6,7,8,9,10,11, 13a,14,14a,15,16,16a-hexadecahydrocyclopropa [e]pyrrolo[1,2-a][1,4] diazacyclopentadecine-14a-carboxamide]: the EC50 is below 1 µM.
Turning to `O=C(N[C@@H]1C[C@H]2C(=O)N[C@]3(C(=O)NS(=O)(=O)C4CC4)C[C@H]3/C=C\CCCCC[C@H](CC(=O)N3CCCCC3)C(=O)N2C1)c1cc(-c2ccccc2)nc2ccccc12` [Compound 81, (2R,6R,14aR,16aS,Z)-N-(cyclopropylsulfonyl)-5,16-dioxo-6-(2-oxo-2-(piperidin-1-yl)ethyl)-2-(2-phenylquinoline-4-carboxamido)-1,2,3,5,6,7,8,9,10,11, 13a,14,14a,15,16,16a-hexadecahydrocyclopropa [e]pyrrolo[1,2-a][1,4] diazacyclopentadecine-14a-carboxamide], the EC50 is below 1 µM.
As for `O=C1N[C@]2(C(=O)NS(=O)(=O)C3CC3)C[C@H]2/C=C\CCCCC[C@H](CC(=O)N2CCC(F)(F)CC2)C(=O)N2C[C@H](Oc3cc(-c4ccccn4)nc4c5c(ccc34)OCC5)C[C@@H]12` [Compound 82, (2R,6R,14aR,16aS,Z)-N-(cyclopropylsulfonyl)-6-(2-(4,4-difluoropiperidin-1-yl)-2-oxoethyl)-5,16-dioxo-2-(2-(pyridin-2-yl)-8,9-dihydrofuro[2,3-h]quinolin-4-yloxy)-1,2,3,5,6,7,8,9,10,11, 13a,14,14a,15,16,16a-hexadecahydrocyclopropa [e]pyrrolo[1,2-a][1,4] diazacyclopentadecine-14a-carboxamide], the figure is below 1 µM; as for `O=C1N[C@]2(C(=O)NS(=O)(=O)C3CC3)C[C@H]2/C=C\CCCCC[C@H](CC(=O)N2CCC(C(F)(F)F)CC2)C(=O)N2C[C@H](Oc3cc(-c4ccccn4)nc4c5c(ccc34)OCC5)C[C@@H]12` [Compound 83, (2R,6R,14aR,16aS,Z)-N-(cyclopropylsulfonyl)-5,16-dioxo-6-(2-oxo-2-(4-(trifluoromethyl)piperidin-1-yl)ethyl)-2-(2-(pyridin-2-yl)-8,9-dihydrofuro[2,3-h]quinolin-4-yloxy)-1,2,3,5,6,7,8,9,10,11, 13a,14,14a,15,16,16a-hexadecahydrocyclopropa [e]pyrrolo[1,2-a][1,4] diazacyclopentadecine-14a-carboxamide], below 1 µM; as for `O=C1N[C@]2(C(=O)NS(=O)(=O)C3CC3)C[C@H]2/C=C\CCCCC[C@H](CC(=O)N2CCCCC2)C(=O)N2C[C@H](Oc3cc(-c4ccccn4)nc4c5c(ccc34)OCC5)C[C@@H]12` [Compound 84, (2R,6R,14aR,16aS,Z)-N-(cyclopropylsulfonyl)-5,16-dioxo-6-(2-oxo-2-(piperidin-1-yl)ethyl)-2-(2-(pyridin-2-yl)-8,9-dihydrofuro[2,3-h]quinolin-4-yloxy)-1,2,3,5,6,7,8,9,10,11, 13a,14,14a,15,16,16a-hexadecahydrocyclopropa [e]pyrrolo[1,2-a][1,4] diazacyclopentadecine-14a-carboxamide], above 10 µM.
`COc1ccc2c(O[C@@H]3C[C@H]4C(=O)N[C@]5(C(=O)NS(=O)(=O)C6CC6)C[C@H]5/C=C\CCCCC[C@H](CC(=O)N5CCN(C(=O)N6CCCC6)CC5)C(=O)N4C3)cc(-c3ccccc3)nc2c1` [Compound 85, (2R,6R,14aR,16aS,Z)-N-(cyclopropylsulfonyl)-2-(7-methoxy-2-phenylquinolin-4-yloxy)-5,16-dioxo-6-(2-oxo-2-(4-(pyrrolidine-1-carbonyl)piperazin-1-yl)ethyl)-1,2,3,5,6,7,8,9,10,11, 13a,14,14a,15,16,16a-hexadecahydrocyclopropa [e]pyrrolo[1,2-a][1,4] diazacyclopentadecine-14a-carboxamide]: the EC50 is below 1 µM.
As to `CCS(=O)(=O)N1CCN(C(=O)C[C@H]2CCCCC/C=C\[C@@H]3C[C@@]3(C(=O)NS(=O)(=O)C3CC3)NC(=O)[C@@H]3C[C@@H](Oc4cc(-c5ccccc5)nc5cc(OC)ccc45)CN3C2=O)CC1` [Compound 86, (2R,6R,14aR,16aS,Z)-N-(cyclopropylsulfonyl)-6-(2-(4-(ethylsulfonyl)piperazin-1-yl)-2-oxoethyl)-2-(7-methoxy-2-phenylquinolin-4-yloxy)-5,16-dioxo-1,2,3,5,6,7,8,9,10,11, 13a,14,14a,15,16,16a-hexadecahydrocyclopropa [e]pyrrolo[1,2-a][1,4] diazacyclopentadecine-14a-carboxamide], the EC50 is below 1 µM.
Compound `COc1ccc2c(O[C@@H]3C[C@H]4C(=O)N[C@]5(C(=O)NS(=O)(=O)C6CC6)C[C@H]5/C=C\CCCCC[C@H](CC(=O)N5CCN(c6cnccn6)CC5)C(=O)N4C3)cc(-c3ccccc3)nc2c1` [Compound 87, (2R,6R,14aR,16aS,Z)-N-(cyclopropylsulfonyl)-2-(7-methoxy-2-phenylquinolin-4-yloxy)-5,16-dioxo-6-(2-oxo-2-(4-(pyrazin-2-yl)piperazin-1-yl)ethyl)-1,2,3,5,6,7,8,9,10,11, 13a,14,14a,15,16,16a-hexadecahydrocyclopropa [e]pyrrolo[1,2-a][1,4] diazacyclopentadecine-14a-carboxamide] had a half-maximal effective concentration (EC50) below 1 µM.
